# Measurements: patent US9167816B2, “Antimicrobial composition for inhibiting microbial organisms and the method thereof” (National Taiwan University, priority 2013, dated 2015)
# No end group written: not given here.
# How the values were obtained:
# [1] = tested on: A. brassicicola Ac1, B. cinerea B-134, B. elliptica B061 and C. acutatum HL1; test: H2DCFDA staining (reactive oxygen species accumulation), germinating spores; format: cell-based; conditions: 50 μg/ml
# Procedure: (§1) The fungal spores (A) and hyphae (B) were treated with 50 μg/ml LsGRP1^C for 2 h and 16 h, respectively. Then membrane permeability, chromatin condensation and reactive oxygen species accumulation of treated spores and hyphae were assayed by staining with SYTOX Green, DAPI and H2DCFDA, respectively. Sterile deionized water was used instead of LsGRP1^C as a control. Bar=20 μm (A) or 50 μm (B).
# (§2) Fungal spore and hyphae were treated with 50 μg/ml peptide solution for 2 h and 16 h, respectively. Then the fungal cells were stained with 10 μM 2′,7′-dichlorodihydrofluorescein diacetate (H2DCFDA) in the dark for 60 min before observation under Leica DMIL florescent microscope equipped with a Chroma 41012 filter set. Sterile deionized water was used instead of peptide solution as a control.
# [2] = tested on: X. campestris XCP3; format: cell-based, Xanthomonas campestris
# Procedure: (§3) (A) Bacterial growth inhibited by LsGRP1-derived peptides. The bacterial suspension with an OD600 of 0.15 was treated with 2.5 mg/ml peptide solution for 90 min, and the CFUs in each peptide sample were measured at 20-24 h post treatment by serial-dilution plating Inhibition of bacterial growth (%)=[(CFUs in water treatment−CFUs in peptide treatment)/CFUs in water treatment]×100%. (B) Spore germination of plant fungal pathogens inhibited by LsGRP1-derived peptides. Fungal spores with a concentration of 1×10^5 spores/ml were treated with 2.5 mg/ml peptide for 16-20 h before the observation of spore germination under light microscope. Inhibition of fungal spore germination (%)=[(Number of spores germinating in water−Number of spores germinating in peptide solution)/Number of spores germinating in water]×100%.
# (§4) The bacterial strains used in this invention included Agrobacterium tumefaciens C58C^1 (Van Larebeke et al., 1974), Bacillus subtilis 28-4, Escherichia coli DH5α (Invitrogen), Dickeya chrysanthemi TA1, Pseudomonas syringae pv. syringae 61 (Huang et al., 1988), and Xanthomonas campestris XCP3. […]
# (§5) The antibacterial and antifungal activities of these peptides were determined by measuring the inhibition rate of bacterial growth and fungal spore germination. […] After incubation for 20-24 h, the colony-forming units (CFUs) in each peptide-treated sample were quantified. […]
# [3] = tested on: B. elliptica B061; format: cell-based, Botrytis elliptica; conditions: Inhibition of fungal spore germination at 5 × 10^4 spores/ml
# Procedure: as §3, with “Fungal spores with a concentration of 1×10^5 spores/ml were treated with 2.5 mg/ml peptide for 16-20 h before the observation of spore germination under light microscope.” left out
# (§6) The fungi used in this study included Alternaria brassicicola Ac1, Botrytis cinerea B-134, Botrytis elliptica B061, Colletotrichum acutatum HL1, and Colletotrichum gleosporioides MT1. […]
# as §5
# [4] = tested on: all assayed bacterial species (six bacterial species); format: cell-based
# Procedure: as §3, §4, §5
# [5] = tested on: A. tumefaciens C58C^1; format: cell-based, Agrobacterium tumefaciens
# Procedure: as §3, §4, §5
# [6] = tested on: spores and hyphae of A. brassicicola Ac1, B. cinerea B-134, B. elliptica B061 and C. acutatum HL1; test: Light microscopy of treated fungal spores and hyphae; format: cell-based; conditions: 50 μg/ml; spores 2 h, hyphae 16 h
# [7] = tested on: P. syringae; test: Disease suppression assay, bacterial leaf spot in tomato; format: in vivo, Pseudomonas syringae on tomato leaves; conditions: 6 days after inoculation
# Procedure: (§7) The synthetic LsGRP1^C solutions of 2.5, 0.25 or 0.025 mg/ml were used. LsGRP1^C solution was dropped onto the surface of cabbage leaves. Meanwhile 5 μl spore suspension of A. brassicicola (2×10^5 conidia/ml), a fungal pathogen of cabbage black spot, was mixed with LsGRP1^C solution. In addition, fungal spore suspension was deposited before or after LsGRP1^C application. On the other hand, synthetic LsGRP1^C solution was dropped onto strawberry flowers, and then mixed with spore suspension of B. cinerea (2×10^5 conidia/ml). Similarly, synthetic LsGRP1^C solution was dropped onto tomato leaves, and then mixed with bacterial suspension of P. syringae (10^7 CFU/ml). Sterile water was used instead of LsGRP1^C solution as a control. Lesion development was examined visually.
# LsGRP1^C solution (10 μl each) was dropped onto wounded tissues of tomato leaves, mixed with 10 μl bacterial suspension (10^7 CFU/ml) of pathogenic P. syringae, and then lesion development was examined 6 days after bacterial inoculation.
# [8] = tested on: E. coli DH5α; format: cell-based, Escherichia coli; conditions: Inhibition of bacterial growth (OD600 = 0.15)
# Procedure: as §3, §4, §5
# [9] = tested on: C. gleosporioides MT1; format: cell-based, Colletotrichum gleosporioides; conditions: 2.5 mg/ml peptide, 16-20 h, 1×10^5 spores/ml
# Procedure: as §3, §6, §5
# [10] = tested on: A. brassicicola Ac1; format: cell-based, Alternaria brassicicola; conditions: Inhibition of fungal spore germination at 5 × 10^4 spores/ml
# Procedure: as §3, §6, §5
# [11] = tested on: A. brassicicola; test: Disease suppression assay, cabbage black spot; format: in vivo, Alternaria brassicicola on cabbage leaves; conditions: 7 days after inoculation
# Procedure: as §7
# Fungal inoculation was two days (−2) or one day (−1) before treatment besides at same time of the treatment. Fungal inoculation was also performed two day (2) or one day (1) after treatment.
# [12] = tested on: B. elliptica; test: H2DCFDA staining (reactive oxygen species accumulation), non-germinating spores; format: cell-based, Botrytis elliptica; conditions: 50 μg/ml, 2 h
# Procedure: as §1, §2
# [13] = tested on: assayed microbes (bacterial and fungal species); format: cell-based
# Procedure: The antibacterial and antifungal activities of these peptides were determined by measuring the inhibition rate of bacterial growth and fungal spore germination. Bacterial suspensions with an OD600 at 0.15 were treated with peptide solution for 90 min, then serially diluted and plated on LB media. After incubation for 20-24 h, the colony-forming units (CFUs) in each peptide-treated sample were quantified. The inhibition of bacterial growth (%)=[(CFUs in water treatment−CFUs in peptide treatment)/CFUs in water treatment]×100%. On the other hand, fungal spore suspensions of 1×10^5 spores/ml were treated with peptide solutions for 16-20 h, and then the spore germinations were examined under microscope. The germ tube greater than two times of spore length was considered germinated Inhibition of fungal spore germination (%)=[(Number of the spores germinating in water−Number of the spores germinating in peptide solution)/Number of the spores germinating in water]×100%. Sterile deionized water replaced the peptide solution as a control treatment. All assays were performed in triplicate. Based on the data, the concentrations of peptide for 50% growth inhibition (IC50) of each microbe were determined.
# According to the IC50 values of LsGRP1^C on different bacterial and fungal species, the antimicrobial potency of LsGRP1^C was verified.
# [14] = tested on: C. acutatum HL1; format: cell-based, Colletotrichum acutatum; conditions: Inhibition of fungal spore germination at 5 × 10^4 spores/ml
# Procedure: as §3, with “Fungal spores with a concentration of 1×10^5 spores/ml were treated with 2.5 mg/ml peptide for 16-20 h before the observation of spore germination under light microscope.” left out
# as §6, §5
# [15] = tested on: D. chrysanthemi TA1; format: cell-based, Dickeya chrysanthemi; conditions: 2500 μg/ml peptide, 90 min, CFUs at 20-24 h
# Procedure: as §3, §4, §5
# [16] = tested on: B. cinerea; test: Disease suppression assay, gray mold; format: in vivo, Botrytis cinerea on strawberry and orchid flowers; conditions: different concentrations
# Procedure: as §7
# Synthetic LsGRP1^C solution (1 μl each) was dropped onto strawberry flowers, then mixed with 1 μl spore suspension of B. cinerea. […] LsGRP1^C solution (5 μl each) was dropped onto orchid flowers, then mixed with 5 μl spore suspension of B. cinerea.
# [17] = tested on: P. syringae pv. syringae 61; format: cell-based, Pseudomonas syringae pv. syringae; conditions: Inhibition of bacterial growth (OD600 = 0.15)
# Procedure: as §3, §4, §5
# [18] = tested on: assayed fungal species; test: Growth inhibition assay, fungal spore germination, statements on the assayed fungal species; format: cell-based
# Procedure: as §3, §6, §5
# [19] = tested on: B. cinerea B-134; format: cell-based, Botrytis cinerea
# Procedure: as §3, §6, §5
# [20] = tested on: spores and hyphae of A. brassicicola Ac1, B. cinerea B-134, B. elliptica B061 and C. acutatum HL1; test: DAPI staining of fungal spores and hyphae (chromatin condensation); format: cell-based; conditions: 50 μg/ml; spores 2 h, hyphae 16 h
# Procedure: as §1
# Fungal spore and hyphae were treated with 50 μg/ml peptide solution for 2 h and 16 h, respectively. Then the fungal cells were stained with 4′,6′-diamidino-2-phenylindole (DAPI) at a final concentration of 1 μg/ml in the dark for 10 min before observation under Leica DMIL florescent microscope equipped with a Leica A filter set (BP340-380 nm, DM 400 nm, LP425 nm). Sterile deionized water was used instead of the peptide solution as a control.
# [21] = tested on: B. subtilis 28-4; format: cell-based, Bacillus subtilis; conditions: Inhibition of bacterial growth (OD600 = 0.15)
# Procedure: as §3, §4, §5
# [22] = 2500 μg/ml peptide, 90 min, CFUs at 20-24 h
# [23] = Inhibition of bacterial growth (OD600 = 0.15)
sequence,measurement,setting,value
GRELAEETKENTEKRATEAGVADQKY [LsGRP1^N],ROS accumulation (H2DCFDA) in germinating spores,[1],visualized
same,Inhibition of bacterial growth,[2]; [22],69.6%
same,IC50,[2]; [23],32.19 µg/mL
same,IC50,[3],86.13 µg/mL
same,Inhibition of bacterial growth on all assayed bacterial species,"[4]; 2500 μg/ml, 90 min, CFUs at 20-24 h, all six species",more than 99.5%
same,IC50 on all assayed bacterial species except A. tumefaciens C58C^1,[4]; summary bound of Table 1,lower than 32.19 μg/ml
same,Inhibition of bacterial growth,[5]; [22],over 98.5%
same,IC50,[5]; [23],71.79 µg/mL
same,morphology of spores and hyphae under light microscope,[6],abnormal blebbing and shrinkage
same,lesion development of bacterial leaf spot in tomato,[7]; 0.025 mg/ml,could inhibit lesion development
same,lesion development of bacterial leaf spot in tomato,[7]; 0.25 mg/ml,could inhibit lesion development
same,IC50,[8],9.67 µg/mL
same,Inhibition of fungal spore germination,[9],not affected
same,IC50,[10],54.80 µg/mL
same,suppression of lesion development of cabbage black spot,"[11]; 0.025 mg/ml, fungal inoculation 2 days before treatment",did not occur
same,lesion development of cabbage black spot,"[11]; 0.25 mg/ml, treatment at same time or 1-2 day before/after inoculation",could be inhibited
same,ROS accumulation (H2DCFDA) in non-germinating spores,[12],present
same,IC50 on all assayed microbes,[13],below 86.13 μg/ml
same,IC50,[14],17.39 µg/mL
same,Inhibition of bacterial growth,[15],over 98.5%
same,lesion development of orchid gray mold,"[16]; orchid flowers, 9 days after inoculation",could be suppressed
same,lesion development of strawberry gray mold,"[16]; strawberry flowers, 3 days after inoculation",could be suppressed
same,IC50,[17],20.63 µg/mL
same,"Inhibition of fungal spore germination, fungi other than B. elliptica B061","[18]; 2.5 mg/ml peptide, 16-20 h, with the exception of B. elliptica B061",did not inhibit spore germination
same,IC50 on the assayed fungal species except B. elliptica,[18]; summary bound of Table 1,below 58.26 μg/ml
same,Inhibition of fungal spore germination,"[19]; 2.5 mg/ml peptide, 16-20 h, 1×10^5 spores/ml",not affected
same,IC50,[19]; Inhibition of fungal spore germination at 5 × 10^4 spores/ml,58.26 µg/mL
same,"DAPI staining, nuclear chromatin condensation",[20],nuclear chromatin condensation
same,IC50,[21],23.32 µg/mL
